Source: patent US7309793B2, “Benzopyran derivatives substituted with a benzimidazole derivative, pharmaceutically acceptable salts therof, their preparations and pharmaceutical compositions containing them” (Dongbu Hannong Chemical Co., Ltd., priority 2003, dated 2007)
pIC50: −log10 of the molar value.

Assays:
rat aorta = assay: Vasodilating effect on blood vessel isolated from white rats (methoxamine-constricted aortic rings); conditions: for pIC50: isolated rat aorta constricted with methoxamine (3 μM), endothelium removed, read-out: Concentration for inhibition of constriction induced by methoxamine in rat arota (IC50); for weaker vasorelaxation effect than that of BMS-180448 (times): ratio of IC50 versus BMS-180448
Description: White rats (350˜450 g; the Experimental Animal Team of the Korea Research Institute of Chemical Technology) were knocked to be unconscious by hitting the occipital region, sacrificed by cervical dislocation, and underwent thoracotomy. After being quickly removed, the thoracic aorta was deprived of the adipose tissue and cut into aortic rings of 3 mm width. The aorta was lightly rubbed with cotton club soaked in a modified Krebs Henseleit buffer (physiological salt solution) to remove the inner […] layer therefrom. While being hung in an organ bath containing a physiological buffer, the vascular smooth muscle was allowed to equilibrate under a resting tension of 2 g and then, stand for 1 hour at 37° C. for stabilization, supplying a carbogen consisting of 95% O2/5% CO2. Thereafter, the vascular smooth muscle was constricted with 10^−5 M phenylephrine and washed several times with physiological saline solution. The said procedure was repeated to ensure the stable reactivity of vascular smooth muscle to repetitive constriction/relaxation.
Thereafter, 3×10^−6 M methoxamine was applied to induce an intensive constriction in the vascular smooth muscle. When the vasoconstriction induced by the methoxamine was reached and maintained to a maximum, test compounds and control material were cumulatively added to the organ bath with concentration of 1, 3, 10 and 30 μM, respectively, to examine the vasodilating effect. Cromakalim and BMS-180448 (compound of <Formula 2>), known to be the first generation KATP opener with potent vasodilating effect, were used as control materials.
The change rate of constriction by the addition of the drugs compared to the maximal constriction induced by methoxamine was calculated to plot a concentration-relaxation response curve. Through a least linear regression analysis, IC50 that the drug concentration at which the vascular tissue is relaxed to 50% extent of the maximal constriction, was obtained for each drug. And the results were shown in the below Table 1.

isolated rat hearts = assay: Cardioprotective effect on isolated ischemic heart models of white rats (Langendorff, global ischemia-reperfusion); conditions: 10 μM; for LVDP × HR (left ventricular developed pressure × heart rate), % of pre-treatment / EDP (left ventricular end diastolic pressure): 30 min global ischemia, 30 min reperfusion; for EDP (left ventricular end diastolic pressure): baseline 5 mmHg; for LDH (concentration of lactate dehydrogenase, reperfusion release): after 30 min reperfusion; for TTC (time to contracture / time to induce contraction): during 30 min global ischemia, first 5 mmHg increase in EDP
Protocol: 100 mg/kg of sodium pentobarbital was injected in abdominal cavity of white male rats (300˜450 g; the experimental animal team of the Korea Research Institute of Chemical Technology) to anesthetize them. Then, an intravenous injection of 1000 U/kg of heparin was performed before taking out heart. Particularly, cannula(PE 240) was inserted in the trachea, and artificial respiration was tried upon the rat by using a rodent ventilator. Under that condition, aortic cannula was inserted in the aorta and heart was taken out under retrograde perfusion. The extracted heart was hung on Langendorff apparatus quickly and unnecessary tissues on heart were removed. Perfusion was induced under static pressure (85 mmHg) with 37° C. modified Krebs-Henseleit bicarbonate buffer (composition <mM/L>: 116 NaCl, 4.7 KCl, 1.1 MgSO4, 1.17 KH2PO4, 24.9 NaHCO3, 2.52 CaCl2, 8.32 Glucose, 2.0 Pyruvate) saturated with 95% O2/5% CO2. A metal cannula, to which a latex balloon filled with a ethanol-distilled water mixture (1:1 vol/vol) was linked, was inserted in left ventricle through pulmonary vein. Then, left ventricular pressure transmitted through the balloon was transduced by using pressure transducer, and amplified by using isovolumetric amplifier(Plugsys bridge amplifier). Then, the pressure was recorded in a recorder (Linearcorder mark 8 WR 3500). Thereafter, heart was stabilized for 15 minutes. Then, left ventricular end diastolic pressure (LVEDP) was given by 5 mmHg and such volume of the balloon was kept throughout the experiments.
Baseline cardiac contractile function, heart rate (HR), and coronary flow (CF) were measured. Cardiac contractile function was calculated by […], yielding LVDP (left ventricular developed pressure). Double product RPP (rate-pressure product)(DP), another important parameter for indirectly assessing cardiac performance in Langendorff heart, in which cardiac output could not be measured ordinarily, was calculated by multiplying HR by LVDP. Throughout the experiment, total coronary blood flow was measured by the use of coronary flow probe (diameter: 1.0 mm) installed in aortic cannula with electromagnetic flowmeter. Temperature of heart was steadily maintained by immersing the heart at 37° C. in physiological saline solution to which 95% O2/5% CO2 was constantly supplied. After stabilization for 15 min, the hearts were pre-treated for 10 min with vehicle (0.04% DMSO) only or a compound of the present invention or the control material in the vehicle. Thereafter, cardiac contractile function, HR and CF were repeatedly measured. Global ischemia was induced by completely shutting off the perfusate for 30 min. Severity of ischemia was determined as the time to contracture (TTC, min) during global ischemia in which the first 5 mmHg increase in EDP was observed. Then, the hearts were reperfused and, 30 min later, contractile functions (LVDP, HR and CF) were repeatedly measured. After reperfusion was accomplished for 30 min, LDH (lactate dehydrogenase) was measured with a kit as a sensitive index for loss of cell viability.

Structure (SMILES)	pIC50 (rat aorta)	weaker vasorelaxation effects than that of Cromakalim (times) (rat aorta; ratio of IC50 versus Cromakalim)	LVDP × HR (left ventricular developed pressure × heart rate), % of pre-treatment (isolated rat hearts) [%]	EDP (left ventricular end diastolic pressure) (isolated rat hearts) [mmHg]	LDH (concentration of lactate dehydrogenase, reperfusion release) (isolated rat hearts) [unit/g]	TTC (time to contracture / time to induce contraction) (isolated rat hearts) [min]	weaker vasorelaxation effect than that of BMS-180448 (times) (rat aorta)
CC1(C)Oc2ccc(C#N)cc2[C@@H](NC(=NC#N)Nc2ccc(Cl)cc2)[C@@H]1O [BMS-180448, reference compound]	5.86	twenty times weaker	67.6	16.5	17.2	27.8	
CC1(C)Oc2ccc(C#N)cc2C(N2CCCC2=O)C1O (centres unmarked) [Cromakalim, reference compound]	7.17						
COC(OC)[C@@]1(C)Oc2ccc([N+](=O)[O-])cc2[C@H](n2c(=NC#N)[nH]c3ccccc32)[C@H]1O [Example 1, (2S, 3R, 4S)-6-nitro-3,4-dihydro-3-hydroxy-2-dimethoxymethyl-2-methyl-4-(2,3-dihydro-2-cyanoimino-1H-benzimidazol-1-yl)-2H-1-benzopyran]	4.30		68.8	20.3	8.1	23.2	36
COC(OC)[C@@]1(C)Oc2ccc([N+](=O)[O-])cc2[C@H](n2c(=O)[nH]c3ccccc32)[C@H]1O [Example 18, (2S, 3R, 4S)-6-nitro-3,4-dihydro-3-hydroxy-2-dimethoxymethyl-2-methyl-4-(2,3-dihydro-2-oxo-1H-benzimidazol-1-yl)-2H-1-benzopyran]			41.5	29.3	20.4	24.2	
CC1(C)Oc2ccc([N+](=O)[O-])cc2[C@H](n2c(=O)[nH]c3ccccc32)[C@H]1O [Example 20, (3R, 4S)-6-nitro-3,4-dihydro-3-hydroxy-2,2-dimethyl-4-(2,3-dihydro-2-oxo-1H-benzimidazol-1-yl)-2H-1-benzopyran]	4.73		55.5	29.0	20.7	23.9	10
